Reference: ChEMBL document CHEMBL1909511, “Inhalation by design: novel tertiary amine muscarinic M₃ receptor antagonists with slow off-rate binding kinetics for inhaled once-daily treatment of chronic obstructive pulmonary disease” (J Med Chem, 2011)

How the values were obtained:
[1] = test system: Canis familiaris; assay: Toxicity in methacholine challenged Beagle dog assessed effect on heart rate at 3 ug intratracheally administered as single dose in micelle solution; type: organism-based, Canis lupus familiaris; settings: in vivo, inhaled_or_intranasal
[2] = test system: Canis familiaris; assay: Bronchodilator activity in Beagle dog assessed as inhibition of methacholine-induced lung resistance after cumulative intratracheal administration in micelle solution at hourly intervals challenged each time 1 hr later with methacholine; type: functional, Canis lupus familiaris
[3] = test system: Canis familiaris; assay: Toxicity in methacholine challenged Beagle dog assessed effect on heart rate at 10 ug intratracheally administered as single dose in micelle solution; type: organism-based, Canis lupus familiaris; settings: in vivo, inhaled_or_intranasal
[4] = biological target: T1, Muscarinic acetylcholine receptor M4 (Homo sapiens) (UniProt P08173); assay: Displacement of [3H]-NMS from human recombinant M4 receptor expressed in CHO cells assessed as dissociation half life at 100 fold human M4 receptor binding Ki concentration after 24 hrs by dilution-offset filter binding assay; type: cell-based
T1 sequence (whole entry): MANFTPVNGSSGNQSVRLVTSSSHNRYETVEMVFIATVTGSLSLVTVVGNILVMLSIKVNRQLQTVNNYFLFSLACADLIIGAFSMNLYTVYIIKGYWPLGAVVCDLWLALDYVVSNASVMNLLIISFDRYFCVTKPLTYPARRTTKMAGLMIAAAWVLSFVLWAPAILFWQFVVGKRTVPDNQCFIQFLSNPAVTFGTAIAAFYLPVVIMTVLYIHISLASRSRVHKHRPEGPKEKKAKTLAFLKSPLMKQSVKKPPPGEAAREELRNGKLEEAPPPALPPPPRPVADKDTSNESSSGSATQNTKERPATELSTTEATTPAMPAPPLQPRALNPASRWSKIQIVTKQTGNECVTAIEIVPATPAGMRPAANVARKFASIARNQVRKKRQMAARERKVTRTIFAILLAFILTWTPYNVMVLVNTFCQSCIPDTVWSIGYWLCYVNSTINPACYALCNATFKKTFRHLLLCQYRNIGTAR

[5] = biological target: T2, Muscarinic acetylcholine receptor M3 (Homo sapiens, UniProt P20309); settings: CHO
T2 sequence (P20309 whole entry, looked up): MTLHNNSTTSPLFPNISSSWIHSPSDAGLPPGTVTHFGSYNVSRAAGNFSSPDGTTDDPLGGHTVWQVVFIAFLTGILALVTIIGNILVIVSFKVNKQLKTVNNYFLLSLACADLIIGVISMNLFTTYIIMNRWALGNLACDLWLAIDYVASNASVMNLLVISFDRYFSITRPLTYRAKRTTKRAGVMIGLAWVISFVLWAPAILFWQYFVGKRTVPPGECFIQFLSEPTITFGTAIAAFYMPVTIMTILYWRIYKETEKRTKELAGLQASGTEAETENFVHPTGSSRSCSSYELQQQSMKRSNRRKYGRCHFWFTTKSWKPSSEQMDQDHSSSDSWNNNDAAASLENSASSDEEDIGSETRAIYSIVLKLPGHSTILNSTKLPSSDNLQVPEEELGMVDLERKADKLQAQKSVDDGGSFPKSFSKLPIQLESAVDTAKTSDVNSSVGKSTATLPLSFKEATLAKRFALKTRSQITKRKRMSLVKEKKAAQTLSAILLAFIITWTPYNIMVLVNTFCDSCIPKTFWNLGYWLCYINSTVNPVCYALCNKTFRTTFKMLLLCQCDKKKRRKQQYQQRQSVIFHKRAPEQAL

[6] = test system: Canis familiaris; assay: Bronchodilator activity in methacholine challenged Beagle dog assessed as intrinsic duration of action at 3 ug intratracheally administered as single dose in micelle solution; type: functional, Canis lupus familiaris
[7] = biological target: T3, Muscarinic acetylcholine receptor M1 (Homo sapiens, UniProt P11229); assay: Displacement of [3H]-NMS from human recombinant M1 receptor expressed in CHO cells after 24 hrs by filter binding assay; type: cell-based
T3 sequence (P11229 whole entry): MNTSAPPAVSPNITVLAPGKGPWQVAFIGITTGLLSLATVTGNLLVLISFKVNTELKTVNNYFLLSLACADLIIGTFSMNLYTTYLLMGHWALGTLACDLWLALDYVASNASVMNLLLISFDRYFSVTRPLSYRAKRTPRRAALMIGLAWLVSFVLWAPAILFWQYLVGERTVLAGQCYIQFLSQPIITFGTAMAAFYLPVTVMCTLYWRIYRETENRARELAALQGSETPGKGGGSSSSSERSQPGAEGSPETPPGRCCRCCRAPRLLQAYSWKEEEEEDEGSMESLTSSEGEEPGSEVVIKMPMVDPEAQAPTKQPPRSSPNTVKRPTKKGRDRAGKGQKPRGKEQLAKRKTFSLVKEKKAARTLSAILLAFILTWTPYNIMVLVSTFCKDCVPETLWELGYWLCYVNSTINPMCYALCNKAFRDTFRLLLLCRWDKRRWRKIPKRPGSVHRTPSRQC

[8] = Half life in iv dosed rat; type: ADME, organism-based; settings: in vivo
[9] = biological target: T4, Muscarinic acetylcholine receptor M5 (Homo sapiens, UniProt P08912); assay: Displacement of [3H]-NMS from human recombinant M5 receptor expressed in CHO cells after 24 hrs by filter binding assay; type: cell-based
T4 sequence (P08912 whole entry): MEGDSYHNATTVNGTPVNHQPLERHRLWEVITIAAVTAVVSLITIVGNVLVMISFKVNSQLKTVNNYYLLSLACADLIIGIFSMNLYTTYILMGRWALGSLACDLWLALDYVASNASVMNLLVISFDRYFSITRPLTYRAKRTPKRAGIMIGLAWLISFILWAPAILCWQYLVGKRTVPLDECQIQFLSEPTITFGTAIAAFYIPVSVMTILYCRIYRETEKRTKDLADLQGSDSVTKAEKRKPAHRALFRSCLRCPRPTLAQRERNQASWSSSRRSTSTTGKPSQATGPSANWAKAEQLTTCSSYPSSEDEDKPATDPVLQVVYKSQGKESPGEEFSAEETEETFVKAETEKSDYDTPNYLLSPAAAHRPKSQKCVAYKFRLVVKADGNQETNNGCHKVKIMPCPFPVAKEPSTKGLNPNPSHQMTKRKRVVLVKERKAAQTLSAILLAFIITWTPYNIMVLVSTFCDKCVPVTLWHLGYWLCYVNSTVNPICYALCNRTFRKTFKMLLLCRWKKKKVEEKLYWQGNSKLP

[10] = Intrinsic clearance in human liver microsomes assessed per mg of protein in presence of NADPH
[11] = biological target: Muscarinic acetylcholine receptor M3 (Cavia porcellus, UniProt Q8VH26); assay: Antagonist activity at M3 receptor in Dunkin-Hartley guinea pig tracheal strips assessed as inhibition of electrically field-stimulated contractile response after 8 hrs; type: functional
Sequence of Muscarinic acetylcholine receptor M3 (Cavia porcellus, UniProt Q8VH26) (Q8VH26 whole entry): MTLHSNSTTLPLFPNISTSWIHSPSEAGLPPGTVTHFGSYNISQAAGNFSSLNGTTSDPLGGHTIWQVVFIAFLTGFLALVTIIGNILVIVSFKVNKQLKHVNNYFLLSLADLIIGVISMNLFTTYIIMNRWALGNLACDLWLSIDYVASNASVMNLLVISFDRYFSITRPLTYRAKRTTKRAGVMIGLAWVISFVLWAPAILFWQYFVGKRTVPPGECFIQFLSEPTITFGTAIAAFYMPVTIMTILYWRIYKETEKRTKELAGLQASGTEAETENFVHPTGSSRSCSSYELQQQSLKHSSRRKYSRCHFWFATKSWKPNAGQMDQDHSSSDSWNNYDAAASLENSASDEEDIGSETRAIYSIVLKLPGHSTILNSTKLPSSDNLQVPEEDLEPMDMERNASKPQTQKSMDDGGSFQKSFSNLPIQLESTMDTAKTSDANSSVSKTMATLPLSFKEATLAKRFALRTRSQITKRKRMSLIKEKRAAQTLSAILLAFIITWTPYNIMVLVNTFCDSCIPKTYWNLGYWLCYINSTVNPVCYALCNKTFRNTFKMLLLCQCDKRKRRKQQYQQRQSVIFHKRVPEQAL

[12] = biological target: T2, Muscarinic acetylcholine receptor M3; settings: CHO; remark: listed apart in the source
[13] = biological target: Muscarinic acetylcholine receptor M3 (Cavia porcellus) (UniProt Q8VH26); assay: Antagonist activity at M3 receptor in Dunkin-Hartley guinea pig tracheal strips assessed as time taken for electrically field-stimulated contractile response to recover by 25 percent of inhibition at Emax after 2 hrs; type: functional
Sequence of Muscarinic acetylcholine receptor M3 (Cavia porcellus) (Q8VH26 1-587): as the sequence (Q8VH26 whole entry) above

[14] = biological target: T2, Muscarinic acetylcholine receptor M3
Description: Displacement of radioligand from M3 receptor assessed as dissociation half life

[15] = test system: MDR1; assay: Apparent permeability across basal to apical side in dog MDCK expressing MDR1; type: ADME, cell-based, Canis lupus familiaris

In the case of `CC(C)(CCC(C(N)=O)(c1ccccc1)c1ccccc1)N1CC(Oc2cccc(O)c2)C1` [PF-03635659], the Activity [1] is reported as “Non-toxic”, the ID50 [2] is reported as 3 µg and the Activity [3] is reported as “Non-toxic”. For the same molecule, the T1/2 [4] was 9.78 h, the T1/2 [5] was > 24 h and the Time [6] was >24 h. It also gave a Ki [7] of 0.115 nM, a half-life [8] of 0.9 h and a Ki [9] of 0.169 nM. For the same molecule, the microsomal CLint [10] was > 282 µL/min/mg, the IC50 [11] was 1.53 nM and the T1/2 [12] was > 24 h. The TIME [13] was > 16 h, the T1/2 [14] was 83.3 h and the Papp B→A [15] was 64 ×10⁻⁶ cm/s.
